Measured values from patent publication KR20210050472A, “에독사반염 및 이를 포함하는 약제학적 조성물” (priority 2019, dated 2021).
Like-named read-outs stand apart in the source and are kept apart here.

Experiments:
[1] = Heat stability test (Test Example 1), crystal form retention at 40±2℃, 75±5% RH; assay type: physicochemical; details: for stability of crystal form: 40℃/75% RH
[2] = Stability test in pH solutions (Test Example 2), related substances by HPLC; assay type: physicochemical; details: for degraded: read-out: amount of related substances generated
[3] = 40℃, 75% RH, from week 8 of the stability test

For `CN1CCc2nc(C(=O)N[C@@H]3C[C@@H](C(=O)N(C)C)CC[C@@H]3NC(=O)C(=O)Nc3ccc(Cl)cn3)sc2C1` [말산염 결정형, 에독사반 말산염 결정형, reference compound], the “change in appearance and powder X-ray diffraction values” ([1]; 40℃, 75% RH, week 24) was “성상 변화 및 분말 X선 회절 값이 변화”, the “stability of crystal form” value ([1]; 8 weeks, 말산염) was “결정형 유지” and the “stability of crystal form” value ([1]; 24 weeks, 말산염) was “결정형 변화”.
For `CN1CCc2nc(C(=O)N[C@@H]3C[C@@H](C(=O)N(C)C)CC[C@@H]3NC(=O)C(=O)Nc3ccc(Cl)cn3)sc2C1` [벤젠술폰산염 결정형 Ⅰ형, 에독사반 벤젠술폰산염 결정형 Ⅰ형], the “stability of crystal form” value ([1]; 8 weeks, 벤젠술폰산염) was “결정형 유지”, the “stability of crystal form” value ([1]; 16 weeks) was “결정형 유지” and the “stability of crystal form” value ([1]; 24 weeks, 벤젠술폰산염) was “결정형 유지”.
In the case of `CN1CCc2nc(C(=O)N[C@@H]3C[C@@H](C(=O)N(C)C)CC[C@@H]3NC(=O)C(=O)Nc3ccc(Cl)cn3)sc2C1` [벤젠술폰산염 결정형 Ⅱ형, 에독사반 벤젠술폰산염 결정형 Ⅱ형, reference compound], the “change of crystal form” value [1, 3] is reported as “일부가 결정형 Ⅰ으로 변화”, the “change of endothermic point by differential scanning calorimetry” value [1, 3] is reported as “결정형 Ⅰ형의 흡열점이 관찰” and the “stability of crystal form” value ([1]; 8 weeks, 벤젠술폰산염) is reported as “일부 결정형 Ⅰ형으로 변화”.
For `CN1CCc2nc(C(=O)N[C@@H]3C[C@@H](C(=O)N(C)C)CC[C@@H]3NC(=O)C(=O)Nc3ccc(Cl)cn3)sc2C1` [에디실산염 수화물 결정형, 에독사반 에디실산염 수화물 결정형], the “change in crystal form and appearance” value ([1]; 40℃, 75% RH, over 24 weeks) was “결정형의 변화 및 성상의 변화가 발생하지 않아”, the “stability of crystal form” value ([1]; 8 weeks, 에디실산염 수화물) was “결정형 유지” and the “stability of crystal form” value ([1]; 16 weeks) was “결정형 유지”. The “stability of crystal form” value ([1]; 24 weeks, 에디실산염 수화물) was “결정형 유지”, the degraded ([2]; distilled water (DW)) was 0.18% and the degraded ([2]; pH 1.2) was 19.3%. For the same molecule, the degraded ([2]; pH 7.8) was 11.4%, the “total related substances generated, reduction versus tosylate hydrate” value ([2]; pH 7.8 solution) was ~4.5% and the “total related substances generated, compared with tosylate hydrate” value ([2]; solutions of DW, pH 1.2 and pH 7.8) was “총유연물질이 적게 발생”.
